The numbers were not newly measured in patent publication US20160361342A1, “USE OF ALGINATE OLIGOMERS IN THE TREATMENT OF CYSTIC FIBROSIS AND OTHER CONDITIONS ASSOCIATED WITH DEFECTIVE CFTR ION CHANNEL FUNCTION” (ALGIPHARAMA AS, priority 2014, published 2016), which cites them from elsewhere.

In this series the test system is ileum explants from mutant mice. The conditions noted are these: apical medium supplemented with sodium bicarbonate at levels predicted to be reached by wild type CFTR.

Regarding `O=C([O-])O.[Na+]` [sodium bicarbonate], the attached mucus phenotype result is on record as “can be reversed”.
